Measured values taken from patent US20230135635A1, “INHIBITORS OF ULK1/2 AND METHODS OF USING SAME” (SALK INSTITUTE FOR BIOLOGICAL STUDIES, priority 2020, published 2023).

How the values were obtained:
NanoLuc®-ULK1 Fusion = biological target: T1, NanoLuc®-ULK1 Fusion (Homo sapiens, UniProt O75385); assay: ULK1 NanoBRET assay in HEK293T cells; type: cell-based
T1 construct: host or cells: HEK293T
T1 sequence (O75385 1-1050): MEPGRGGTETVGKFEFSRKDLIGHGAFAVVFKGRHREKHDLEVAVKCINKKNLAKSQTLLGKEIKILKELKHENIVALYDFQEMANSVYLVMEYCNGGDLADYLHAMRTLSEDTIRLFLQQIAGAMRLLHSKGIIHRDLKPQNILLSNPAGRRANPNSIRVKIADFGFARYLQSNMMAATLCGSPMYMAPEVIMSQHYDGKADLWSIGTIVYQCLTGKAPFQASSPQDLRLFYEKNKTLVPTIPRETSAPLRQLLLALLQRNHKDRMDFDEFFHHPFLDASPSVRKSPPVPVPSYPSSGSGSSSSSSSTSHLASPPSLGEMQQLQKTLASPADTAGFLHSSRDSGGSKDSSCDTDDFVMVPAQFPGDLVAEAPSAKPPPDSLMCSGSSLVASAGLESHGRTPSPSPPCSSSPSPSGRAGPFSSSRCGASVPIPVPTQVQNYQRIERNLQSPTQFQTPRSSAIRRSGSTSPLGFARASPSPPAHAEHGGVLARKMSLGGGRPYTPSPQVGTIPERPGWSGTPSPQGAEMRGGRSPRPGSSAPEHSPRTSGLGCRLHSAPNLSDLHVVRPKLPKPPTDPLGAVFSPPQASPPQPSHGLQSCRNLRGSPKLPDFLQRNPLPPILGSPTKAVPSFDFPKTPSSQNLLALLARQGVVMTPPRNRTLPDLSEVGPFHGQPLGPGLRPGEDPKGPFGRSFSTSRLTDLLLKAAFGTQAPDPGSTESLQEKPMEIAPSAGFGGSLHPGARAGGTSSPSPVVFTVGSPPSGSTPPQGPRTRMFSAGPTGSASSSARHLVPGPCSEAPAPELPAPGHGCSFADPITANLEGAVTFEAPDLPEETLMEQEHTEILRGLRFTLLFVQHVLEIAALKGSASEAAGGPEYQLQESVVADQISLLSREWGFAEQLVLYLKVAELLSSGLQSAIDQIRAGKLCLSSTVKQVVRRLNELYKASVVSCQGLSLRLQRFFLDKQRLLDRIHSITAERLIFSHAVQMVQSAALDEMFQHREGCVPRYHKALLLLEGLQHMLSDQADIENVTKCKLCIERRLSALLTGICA
Experimental: IC50s were also measured by ULK1 NanoBRET assay according to the following protocol: Human embryonic kidney cells (HEK293T) were transfected with NanoLuc®-ULK1 Fusion Vector (Promega #NV2211) using jetPRIME transfection reagent (Polyplus Transfection #114-15). Following 24 h, cells were trypsinized and resuspended in Opti-MEM® I (1×), Reduced Serum Medium (Gibco, #11058-021). Approximately, 7,000 cells per well (in 34 μL total volume) were replated into non-binding surface 384 well plates. Complete NanoBRET 20× Tracer K-5 reagent was prepared according to the manufacturer's directions and 2 μL were added to each well of the 384 plate (assay plate). The assay plate was mixed on an orbital shaker for 15 seconds at 700 rpm. Compounds were serially diluted at 200× final concentration in 100% DMSO, then diluted to 10× final concentration in assay media (Opti-MEM® I, Reduced Serum Medium). Next, 4 μL 10× test compounds were added to each well of the assay plate, followed by mixing at 700 rpm for 15 seconds. The assay plate was incubated for 2 h in a 37 C incubator with 5% CO2 and then equilibrated to RT for 15 min. The 3× Complete Substrate plus Inhibitor Solution was prepared according to the manufacturer's directions with a concentration of Extracellular NanoLuc® Inhibitor of 60 μM to be used at a working concentration of […]. The 3× Complete Substrate plus Inhibitor Solution was mixed and 20 μL per well was added to the assay plate and incubated at RT for 2-3 min. Donor emission wavelength (450 nm) and acceptor emission wavelength (610 nm) were measured using an assay compatible luminometer (see manufacturer's specifications).

[1] = biological target: T2, recombinant human ULK1 protein (1-649) (Homo sapiens, UniProt O75385); assay: ULK1 inhibition assay (ADP Glo); type: biochemical
T2 construct: recombinant human ULK1 protein (1-649, SignalChem #U01-11G); purchased SignalChem U01-11G
T2 sequence (O75385 1-649): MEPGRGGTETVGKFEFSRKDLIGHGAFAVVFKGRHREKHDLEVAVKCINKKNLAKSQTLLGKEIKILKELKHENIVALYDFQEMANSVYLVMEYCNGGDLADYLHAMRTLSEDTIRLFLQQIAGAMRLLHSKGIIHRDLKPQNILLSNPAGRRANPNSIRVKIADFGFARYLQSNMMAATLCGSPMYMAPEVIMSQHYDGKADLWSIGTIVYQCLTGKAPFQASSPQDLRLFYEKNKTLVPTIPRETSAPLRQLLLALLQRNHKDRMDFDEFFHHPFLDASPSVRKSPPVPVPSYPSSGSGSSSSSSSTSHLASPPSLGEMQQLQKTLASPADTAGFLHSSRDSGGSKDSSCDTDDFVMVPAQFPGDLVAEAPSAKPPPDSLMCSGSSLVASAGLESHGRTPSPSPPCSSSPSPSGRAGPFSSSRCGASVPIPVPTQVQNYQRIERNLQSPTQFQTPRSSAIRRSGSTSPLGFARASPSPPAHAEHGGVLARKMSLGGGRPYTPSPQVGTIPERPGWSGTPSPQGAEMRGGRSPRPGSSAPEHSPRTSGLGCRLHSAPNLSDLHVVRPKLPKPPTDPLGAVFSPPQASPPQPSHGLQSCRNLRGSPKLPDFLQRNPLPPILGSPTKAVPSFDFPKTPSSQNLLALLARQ
In short: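 Recombinant ULK1 (2 ug/mL) phosphorylated myelin basic protein (80 ug/mL) at 25 uM ATP; ADP formed was detected by ADP-Glo after 1 h. Compounds ran in triplicate, 16-dose 3-fold serial dilution from 30 uM, to give IC50.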

[2] = Table 1, 25 uM ATP, MBP substrate, one hour

Row | Structure (SMILES) | IC50 (NanoLuc®-ULK1 Fusion; Table 1, 2 h incubation) [µM] | IC50 [1, 2] [µM] | IC50 (NanoLuc®-ULK1 Fusion; Table 3) [µM] | IC50 ([1]; Table 3) [µM]
1 | CC(=O)N1CCc2cc(Nc3ncc(C(F)(F)F)c(NC4CC4)n3)ccc2C1 [Compound A19] | < 0.1 | < 0.001 | – | –
2 | O=C(CN1CCc2cc(Nc3ncc(C(F)(F)F)c(NC4CC4)n3)ccc2C1)N1CCOCC1 [Compound A47] | < 0.1 | < 0.001 | – | –
3 | FC(F)(F)c1cnc(Nc2ccc3c(c2)CCN(Cc2c[nH]cn2)C3)nc1NC1CC1 [Compound A51] | < 0.1 | < 0.001 | – | –
4 | FC(F)(F)c1cnc(Nc2ccc3c(c2)CNC3)nc1NC1CC1 [Compound A55] | < 0.1 | < 0.001 | – | –
5 | C#CCC(=O)N1CCc2cc(Nc3ncc(C(F)(F)F)c(NC4CC4)n3)ccc2C1 [Compound A84] | > 0.1 | 0.001 to 0.01 | – | –
6 | CNC(=O)c1ccccc1Nc1nc(Nc2ccc3c(c2)CCN(CCOC)C3)ncc1Cl [Compound A117, 2-((5-Chloro-2-((2-(2-methoxyethyl)-1,2,3,4-tetrahydroisoquinolin-6-yl)amino)pyrimidin-4-yl)amino)-N-methylbenzamide] | < 0.1 | 0.001 to 0.01 | – | –
7 | CNC(=O)c1ccccc1Nc1nc(Nc2ccc3c(c2)CCN(CCOC)C3)ncc1Br [Compound A118, 2-((5-Bromo-2-((2-(2-methoxyethyl)-1,2,3,4-tetrahydroisoquinolin-6-yl)amino)pyrimidin-4-yl)amino)-N-methylbenzamide] | < 0.1 | 0.001 to 0.01 | – | –
8 | CNC(=O)c1ccccc1Nc1nc(Nc2ccc3c(c2)CCN(CCOC)C3)ncc1C(F)(F)F [Compound A119, 2-((2-((2-(2-Methoxyethyl)-1,2,3,4-tetrahydroisoquinolin-6-yl)amino)-5-(trifluoromethyl)pyrimidin-4-yl)amino)-N-methylbenzamide] | < 0.1 | 0.001 to 0.01 | – | –
9 | CNC(=O)c1ccccc1Nc1nc(Nc2ccc3c(c2)CCNC3)ncc1C(F)(F)F [Compound A120, N-Methyl-2-((2-((1,2,3,4-tetrahydroisoquinolin-6-yl)amino)-5-(trifluoromethyl)pyrimidin-4-yl)amino)benzamide] | < 0.1 | 0.001 to 0.01 | – | –
10 | COCCN1CCc2cc(Nc3ncc(C(F)(F)F)c(NC(C)C)n3)ccc2C1 [Compound A122, N^4-Isopropyl-N^2-(2-(2-methoxyethyl)-1,2,3,4-tetrahydroisoquinolin-6-yl)-5-(trifluoromethyl)pyrimidine-2,4-diamine] | < 0.1 | 0.001 to 0.01 | – | –
11 | CNC(=O)c1ccccc1Nc1nc(Nc2ccc3c(c2)OCCO3)ncc1Br [Compound E4, 2-((5-Bromo-2-((2,3-dihydrobenzo[b][1,4]dioxin-6-yl)amino)pyrimidin-4-yl)amino)-N-methylbenzamide] | – | – | > 0.1 | 0.005 to 0.1
12 | CNC(=O)c1ccccc1Nc1nc(Nc2ccc3c(c2)OCO3)ncc1Br [Compound E5, 2-((2-(Benzo[d][1,3]dioxol-5-ylamino)-5-bromopyrimidin-4-yl)amino)-N-methylbenzamide] | – | – | > 0.1 | 0.005 to 0.1
13 | CNC(=O)c1ccccc1Nc1nc(Nc2ccc3c(c2)OCO3)ncc1C(F)(F)F [Compound E6, 2-((2-(Benzo[d][1,3]dioxol-5-ylamino)-5-(trifluoromethyl)pyrimidin-4-yl)amino)-N-methyl benzamide] | – | – | > 0.1 | 0.005 to 0.1
14 | CNC(=O)c1ccccc1Nc1nc(Nc2cc(OC)c(OC)c(OC)c2)ncc1C#N [Compound E9, 2-((5-cyano-2-((3,4,5-trimethoxyphenyl)amino)pyrimidin-4-yl)amino)-N-methylbenzamide] | – | – | < 0.1 | –
15 | CNC(=O)c1ccccc1Nc1nc(Nc2cc(OC)c(OC)c(OC)c2)ncc1C1CC1 [Compound E10, 2-((5-Cyclopropyl-2-((3,4,5-trimethoxyphenyl)amino)pyrimidin-4-yl)amino)-N-methyl-benzamide] | – | – | > 0.1 | –
16 | CNC(=O)c1ccccc1Nc1nc(Nc2cc(OC)c(OC)c(OC)c2)ncc1C [Compound E11, N-Methyl-2-((5-methyl-2-((3,4,5-trimethoxyphenyl)amino)pyrimidin-4-yl)amino)benzamide] | – | – | > 0.1 | –
17 | CNC(=O)c1ccccc1Nc1nc(Nc2cc(OC)c(OC)c(OC)c2)ncc1F [Compound E12, 2-((5-Fluoro-2-((3,4,5-trimethoxyphenyl)amino)pyrimidin-4-yl)amino)-N-methylbenzamide] | – | – | > 0.1 | –
18 | CNC(=O)c1ccccc1Nc1nc(Nc2cc(OC)c(OC)c(OC)c2)ncc1I [Compound E13, 2-((5-iodo-2-((3,4,5-trimethoxyphenyl)amino)pyrimidin-4-yl)amino)-N-methylbenzamide] | – | – | < 0.1 | –
19 | CNC(=O)c1ccccc1Nc1nc(Nc2ccc(N3CCNCC3)cc2)ncc1Br [Compound E24, 2-((5-Bromo-2-((4-(piperazin-1-yl)phenyl)amino)pyrimidin-4-yl)amino)-N-methylbenzamide] | – | – | – | 0.005 to 0.1
20 | C#CCN1CCN(c2ccc(Nc3ncc(Br)c(Nc4ccccc4C(=O)NC)n3)cc2)CC1 [Compound E25, 2-((5-Bromo-2-((4-(4-(prop-2-yn-1-yl)piperazin-1-yl)phenyl)amino)pyrimidin-4-yl)amino)-N-methylbenzamide] | – | – | – | 0.005 to 0.1
21 | CNC(=O)c1cccc(Nc2nc(Nc3cc(OC)c(OC)c(OC)c3)ncc2Br)c1 [Compound E26, 3-((5-Bromo-2-((3,4,5-trimethoxyphenyl)amino)pyrimidin-4-yl)amino)-N-methylbenzamide] | – | – | – | > 0.1
22 | CNC(=O)c1ccc(Nc2nc(Nc3cc(OC)c(OC)c(OC)c3)ncc2Br)cc1 [Compound E27, 4-((5-Bromo-2-((3,4,5-trimethoxyphenyl)amino)pyrimidin-4-yl)amino)-N-methylbenzamide] | – | – | – | > 0.1
23 | COc1cc(Nc2ncc(Br)c(Nc3ccc(NC(=O)C4(C(=O)Nc5ccc(F)cc5)CC4)cc3F)n2)cc(OC)c1OC [Compound E28, N-(4-((5-Bromo-2-((3,4,5-trimethoxyphenyl)amino)pyrimidin-4-yl)amino)-3-fluorophenyl)-N-(4-fluorophenyl)cyclopropane-1,1-dicarboxamide] | – | – | – | > 0.1
